Data set [1] deals with Endothelial cells (HUVEC, BAEC). Nature of the data set: Endothelial cell proliferation. It counts as cell-based, human / bovine. The conditions noted are these: for EC50: 48 hours, copper equivalent, NA = less than 50% at 1.25 mM copper equivalent, read-out: EC proliferation (EC50 mM). How it is done:
Endothelial and tumor cell proliferation assays were performed to determine the ability of test samples to inhibit endothelial cell proliferation (antiangiogenic activity), normal cell proliferation,and tumor cell proliferation.
Endothelial cells (Human umbilical vein endothelial cells (HUVEC), bovine aortic endothelial cells (BAEC)), skeletal muscle cells, human dermal fibroblasts (all from Clonetics, Walkersville, Md.) were respectively maintained in EBM-2, MDEM, SKGM and FGFM-2 complete media according to manufacturer's instructions. Tumor rat glioblastoma cell line (C6) was maintained in DMEM (Sigma, Oaksville, Ontario) supplemented with 10% fetal calf serum (FCS) and antibiotics in 5% CO2. Briefly, cells seeded in 96-well sterile tissue culture dishes were treated with increasing concentrations of different test samples for a period of 48 hours at 37° C. Cell number was then evaluated by a calorimetric assay using the cell proliferation reagent tetrazolium salt and the fluorimetric assay using DNA dye (Hoescht) according to the procedure established by the manufacturer (Boehringer Mannhein). The conversion of these tetrazolium salts into formazan occurs only in metabolically active cells. The percentage of cell inhibition was determined by comparison to untreated cells.
(§1) According to the endothelial cell proliferation assay, the relative effectiveness of two compounds is compared by reference to the EC50 thereof. The EC50 is the concentration of compound at which the number of endothelial cells is reduced by 50% as compared to control. The efficacy of the test samples in EVT is established by the percent of eggs with altered angiogenesis at a given inhibitor dose of 0.6 mg of copper equivalent (see FIG. 6 for examples). A comparison of the antiangiogenic activity of the compounds of the present invention with divalent metal salts (CuCl2, MgCl2, ZnCl2, CoCl2) and uncoupled alpha-amino acids, alpha-imino acids, dipeptides, and nitrogenated molecules comprising a carboxylic acid group, such as creatine, is provided to illustrate that the formation of the amino acid-copper complex gives rise to complexes having antiangiogenic activity.

Data set [2] concerns blood vessel formation in the vitelline membrane of chick embryo. Nature of the data set: Embryonic Vascularization Test (EVT). In kind it is in vivo. The note with it: for EVT (% of inhibition): activity at 0.6 mg equivalent Copper; for EVT activity (in words): in vivo. On the procedure: The Embryonic Vascularization Test (EVT) was performed to determine the ability of test samples to inhibit the formation of new blood vessels (antiangiogenic activity).
The normal development of a chick embryo involves the formation of an external vascular system located in the vitelline membrane which carries nutrients from the vitellus (yolk) to the developing embryo. When placed onto the vitelline membrane, antiangiogenic substances can inhibit the blood vessel formation that occurs in the vitelline membrane. Briefly, methylcellulose discs (an inert solid and transparent matrix) containing different test samples were placed on the external border of the vascular perimeter of the vitelline membrane, where the angiogenic process occurs. Vascularization was assessed 24 hours after disc deposition, and results were expressed as the percent of embryos in which blood vessel formation was affected. The blood vessel formation was considered affected when its growing path was either deviated, or diminished or when there was no growth observed beyond the disc as compared to the negative control. The results are expressed as 0, +, and ++ where 0 is for a lower response than 25 percent of the eggs; + is for a response between 25 and 50 percent; and ++ is for an antiangiogenic response observed in more than 50 percent of the eggs.
as §1

Data set [3] is described as follows: Affinity of the amino acid with copper. In kind it is physicochemical.
The subject of data set [4] is bFGF-stimulated blood vessel formation in Matrigel. The data set is described as follows: Matrigel in vivo angiogenesis assay. Also on record: species or system C57B1/6 mice. The note with it: intra-peritoneal daily 10 days. On the procedure:
The Matrigel™ in vivo assay was performed to determine the ability of test samples to inhibit blood vessel formation (antiangiogenic activity) and to establish their bioavailability in vivo.
Briefly, liquid Matrigel™ (Becton Dickinson, Bedford, Mass.) was maintained at 4° C. and mixed thoroughly for at least 3 hours with 1,500 ng/ml basic fibroblast growth factor (bFGF) (R&D Systems, Minneapolis, Minn.) used as the primary angiogenic stimulus. The mixture (0.5 ml) was injected subcutaneously into the ventral midline of C57B1/6 mice, and treatment with different test samples or saline solution was initiated the same day. Additional animals were also injected with Matrigel™ containing no bFGF to serve as baseline controls. The animals were treated daily for a 10 day period (intra-peritonealy, 0.2 ml of each dose). At day 11, animals were injected with FITC-dextran 20 min prior to euthanizing treated mice. Matrigel™ gels were removed along with underlying peritoneum and prepared for FITC-dextran detection by fluorimetry. The concentration of FITC-dextran in the gels was calculated from a known concentration of FITC-dextran using a standard curve. The FITC-dextran content of the gels from compound-treated animals and controls was expressed as a percent of the positive bFGF-treated controls after the baseline control of FITC-dextran levels were subtracted from all groups.

The subject of data set [5] is Endothelial cells. The data set is described as follows: Endothelial cell tubule formation assay (tubulogenesis). Also on record: key to Tubulogenesis: 0: Numerous capillary-like tube forming pentagonal network; +: Decrease of capillary-like tubes; ++: Dramatic decrease of capillary-like tubes; +++: Absence of capillary-like tubes. In kind it is cell-based. The conditions noted are these: 2.5 mM free (not complexed) ligand. How it is done: The endothelial cell tubule formation assay is a semi-quantitative assay that was performed to determine the ability of test samples to inhibit this multi-step process, which involves cell adhesion, migration, differentiation and growth, using a commercial kit (Chemicon). Briefly, endothelial cells were seeded on solid gel of Ecmatrix™ (Chemicon), basement proteins prepared from the Engelbreth Holm-Swarm (EHS) mouse tumor in microplate in a E-99 media (Sigma) supplemented with 5% FBS and VEGF (50 ng/ml) in the presence or absence of the test sample. Cells were incubated for a period of 24 hours at 37° C. Pictures were taken on the entire tissue culture dish using a binocular microscope for further evaluation.

Turning to (Creatine)2-Cu [Compound 34], in data set [1], the “Endothelial cell proliferation activity (in words)” value is on record as “excellent activity” and the EC50 came to 0.28 mM.

Consider `NCC(=O)[O-].NCC(=O)[O-].[Cu+2]` [Compound 1, Gly:Cu:GIy], for which the EC50 in data set [1] worked out at 0.27 mM. Besides, the “EVT (% of inhibition)” value in data set [2] was “++ (++ more than 50% of inhibition)”. Also, in data set [3], the “Affinity of the AA with Cooper” value stood at 16.0.

In the case of `CC(C)C(N)C(=O)[O-].CC(C)C(N)C(=O)[O-].[Cu+2]` [Compound 4, L-Val:Cu:L-Val], in data set [1], the EC50 turned out to be 0.35 mM. Also, the “EVT (% of inhibition)” value in data set [2] is “+ (+ between 25-50% of inhibition)”. Besides, the “Affinity of the AA with Cooper” value in data set [3] is 15.2.

Take `C[C@@H](O)[C@H](N)C(=O)[O-].N[C@@H](CC(=O)O)C(=O)[O-].[Cu+2]` [Compound 25, L-Asp:Cu:L-Thr]: the EC50 in data set [1] amounted to 0.29 mM.

Regarding Gly:Cu:L-Asp [Compound 22], the EC50 in data set [1] was 0.41 mM.

For the compound Gly:Cu:L-Glu [Compound 24], in data set [1], the EC50 turned out to be 0.33 mM.

With L-AIa:Cu:L-Asp [Compound 21], the EC50 in data set [1] is 0.32 mM.

In the case of D-Asp:Cu:D-Asp [Compound 14], in data set [1], the “Endothelial cell proliferation activity (in words)” value is given as “active” and the EC50 worked out at 0.37 mM.

For `C[C@H](N)C(=O)O.N[C@@H](CCC(=O)[O-])C(=O)[O-].[Cu+2]` [Compound 20, L-Ala:Cu:L-Glu], in data set [1], the EC50 was determined as 0.28 mM.

Take L-Glu:Cu:L-Glu [Compound 7]: the EC50 in data set [1] was 0.35 mM. Further, the “EVT (% of inhibition)” value in data set [2] is on record as “++ (++ more than 50% of inhibition)”. The “Matrigel in vivo % inhibition” value is given as 42.6% in data set [4] (1.4 mg/Kg equivalent copper) and 71.2% in data set [4] (7.0 mg/Kg equivalent copper).

On to `N[C@@H](CO)C(=O)[O-].N[C@@H](CO)C(=O)[O-].[Cu+2]` [Compound 3, L-Ser:Cu:L-Ser], for which the EC50 in data set [1] came to 0.34 mM. Moreover, in data set [2], the “EVT (% of inhibition)” value was 0 (0 non-active (less than 25% of inhibition)) and the “EVT activity (in words)” value is “inactive”. In data set [3], the “Affinity of the AA with Cooper” value is recorded as 15.4.

Consider `N=C(N)NCCC[C@H](N)C(=O)[O-].N=C(N)NCCC[C@H](N)C(=O)[O-].[Cu+2]` [Compound 8, L-Arg:Cu:L-Arg], for which, in data set [1], the EC50 came out at 0.32 mM. In data set [2], the “EVT (% of inhibition)” value was “+ (+ between 25-50% of inhibition)”. The “Affinity of the AA with Cooper” value in data set [3] stood at 14.9.

Consider Gly:Cu:L-Thr [Compound 23], for which, in data set [1], the EC50 came out at 0.48 mM.

Consider L-Asp-Zn-L-Asp [Compound 32], for which the EC50 in data set [1] amounted to 0.18 mM.

On to `N[C@H](Cc1c[nH]cn1)C(=O)[O-].N[C@H](Cc1c[nH]cn1)C(=O)[O-].[Cu+2]` [Compound 17, D-His:Cu:D-His], for which the “Endothelial cell proliferation activity (in words)” value in data set [1] is “inactive”. The “EVT activity (in words)” value in data set [2] was “inactive”.

Take L-Asp:Cu:L-Glu [Compound 26]: in data set [1], the EC50 worked out at 0.25 mM.

The compound `N[C@@H](CC(=O)O)C(=O)O` [Free Asp, aspartic acid, reference compound] registered a Tubulogenesis in data set [5] of 0.

As to L-Glu:Cu:L-Thr [Compound 27], the EC50 in data set [1] is 0.4 mM.

Turning to `O=C([O-])[C@@H]1CCCN1.O=C([O-])[C@@H]1CCCN1.[Cu+2]` [Compound 28, L-Pro:Cu:L-Pro], in data set [1], the “Endothelial cell proliferation activity (in words)” value was “active complex” and the EC50 turned out to be 0.28 mM. Also, the “Affinity of the AA with Cooper” value in data set [3] was 17.6.

As to `NC(=O)CC[C@H](N)C(=O)[O-].NC(=O)CC[C@H](N)C(=O)[O-].[Cu+2]` [Compound 11, L-Gln:Cu:L-Gln], the EC50 in data set [1] worked out at 0.76 mM. Moreover, the “EVT (% of inhibition)” value in data set [2] is 0 (0 non-active (less than 25% of inhibition)). In addition, the “Affinity of the AA with Cooper” value in data set [3] turned out to be 15.5.

With `NCCCC[C@H](N)C(=O)[O-].NCCCC[C@H](N)C(=O)[O-].[Cu+2]` [Compound 9, L-Lys:Cu:L-Lys], in data set [1], the EC50 was 0.35 mM. Further, the “EVT (% of inhibition)” value in data set [2] is “++ (++ more than 50% of inhibition)”. The “Affinity of the AA with Cooper” value in data set [3] worked out at 14.4.

Turning to `[Cl-].[Cl-].[Co+2]` [Co++, reference compound], the EC50 in data set [1] came out at 0.27 mM.

In the case of L-Ala:Cu:L-Thr [Compound 19], the EC50 in data set [1] is 0.36 mM.

Compound `C[C@@H](O)[C@H](N)C(=O)O` [Free Thr, threonine, reference compound] registered a Tubulogenesis in data set [5] of 0.

As to L-Asp-Co-L-Asp [Compound 30], the EC50 in data set [1] came to 0.27 mM.

For the compound `CC(N)C(=O)[O-].CC(N)C(=O)[O-].[Cu+2]` [Compound 13, D-Ala:Cu:D-Ala], in data set [1], the “Endothelial cell proliferation activity (in words)” value was “active” and the EC50 amounted to 0.44 mM.

Regarding `CC(O)C(N)C(=O)[O-].CC(O)C(N)C(=O)[O-].[Cu+2]` [Compound 16, D-Thr:Cu:D-Thr], in data set [1], the “Endothelial cell proliferation activity (in words)” value is given as “active” and the EC50 is 0.3 mM. Further, the “EVT activity (in words)” value in data set [2] is recorded as “active”.

For `C[C@H](N)C(=O)[O-].C[C@H](N)C(=O)[O-].[Cu+2]` [Compound 2, L-Ala:Cu:L-Ala], the EC50 in data set [1] was found to be 0.28 mM. The “EVT (% of inhibition)” value in data set [2] was “++ (++ more than 50% of inhibition)”. Further, the “Affinity of the AA with Cooper” value in data set [3] amounted to 15.9.

Consider D-Glu:Cu:D-GIu [Compound 15], for which, in data set [1], the “Endothelial cell proliferation activity (in words)” value is recorded as “active” and the EC50 was found to be 0.35 mM.

On to `CC[C@H](C)[C@H](N)C(=O)[O-].CC[C@H](C)[C@H](N)C(=O)[O-].[Cu+2]` [Compound 12, L-Ile:Cu:L-IIe], for which the EC50 in data set [1] worked out at 0.48 mM. Moreover, the “Affinity of the AA with Cooper” value in data set [3] came to 16.6.

As for `[Cl-].[Cl-].[Zn+2]` [Zn++, reference compound], in data set [1], the EC50 came to 0.19 mM.

L-Ala:Cu:Gly [Compound 18]: the EC50 in data set [1] worked out at 0.29 mM.

In data set [5], `N[C@@H](Cc1c[nH]cn1)C(=O)O` [Free His, histidine, reference compound] registered a Tubulogenesis of 0.
